According to patent US20130295579A1, “METHOD FOR PREPARING INDUCED PLURIPOTENT STEM CELLS AND MEDIUM USED FOR PREPARING INDUCED PLURIPOTENT STEM CELLS” (SHANGHAI INSTITUTE OF MATERIA MEDICA, CHINESE ACADEMY OF …, priority 2010, published 2013):
Entries after “also recorded” stand apart in the source; their conditions may differ.

Assays:
Assay type in all cases: cell-based
[1] = tested on: OG2 mouse embryonic fibroblasts; test: Three-factor iPS induction, percentage of Oct-GFP+ cells by flow cytometry; details: three factors, 10 mM LiCl, day 16
Procedure: (§1) Retrovirus were produced by transfecting plat-E cells with pMXs retroviral vectors containing the cDNAs of mouse Oct4, Sox2, Klf4 and c-Myc (purchased from Addgene) using Fugene HD (Roche) according to the manufacturer's protocol. After 48 hours, virus-containing supernatants were collected and filtered. The filtered supernatant was supplemented with 8 mg/L of polybrene, and then was used to infect mouse embryonic fibroblasts. The day when adding virus containing supernatants is counted as “day 0”. […]
(§2) The main method for calculating the reprogramming efficiency is the counting of the Oct-GFP^+ cells, including: 1. Using flow cytometry to determine the percentage of Oct-GFP^+ cells in the cell culture, which were infected with four factors for 10 to 12 days or with three factors for 14 to 16 days, or 2. directly counting the Oct-GFP^+ colonies in the wells by using fluorescence microscope.
(§3) a. […] The day of viral infection was counted as “day 0”. […]
c. Using the method described in step a, on day 16, cells were trypsinized and the percentage of Oct-GFP^+ cells was determined by using flow cytometry.

[2] = tested on: OG2 mouse embryonic fibroblasts; test: Four-factor iPS induction, percentage of Oct-GFP+ cells by flow cytometry; details: four factors, 10 mM LiCl, day 12, three independent experiments
Procedure: as §1, §2, §3
c. Using the method described in step a, on day 12, cells were trypsinized and percentage of Oct-GFP^+ cells was determined by using flow cytometry. […]

[3] = tested on: OG2 mouse embryonic fibroblasts; test: Three-factor (Oct4, Sox2, Klf4) iPS induction, counting of Oct-GFP+ colonies by fluorescence microscope; details: three factors, day 14
Procedure: as §1, §2, §3
b. Using the method described in step a, from day 12, Oct-GFP^+ colonies were observed and counted under an inverted fluorescence microscope every day, and pictures were also taken with a fluorescence microscope.

[4] = tested on: OG2 mouse embryonic fibroblasts; test: Four-factor (Oct4, Sox2, Klf4, c-Myc) iPS induction, counting of Oct-GFP+ colonies by fluorescence microscope; details: four factors; for number of Oct-GFP+ colonies per well: 96-well plate
Procedure: Retrovirus were produced by transfecting plat-E cells with pMXs retroviral vectors containing the cDNAs of mouse Oct4, Sox2, Klf4 and c-Myc (purchased from Addgene) using Fugene HD (Roche) according to the manufacturer's protocol. After 48 hours, virus-containing supernatants were collected and filtered. The filtered supernatant was supplemented with 8 mg/L of polybrene, and then was used to infect mouse embryonic fibroblasts. The day when adding virus containing supernatants is counted as “day 0”. The fibroblasts infected with the virus were cultured in the mES medium, and iPS colonies were picked from day 14 to the day 18 after infection (four-factor infection experiment) or from day 20 to day 24 after infection (three-factor infection experiment), based on the expression of Oct-GFP and the typical morphology of stem cells.
as §2
a. Same volumes of the viruses carrying Oct4, Sox2, Klf4 or c-Myc were mixed and added to a total of 180,000 OG2 mouse embryonic fibroblasts in one well of a 6-well plate and cells were cultured in DMEM medium supplemented with 10% fetal bovine serum at 37° C. and 5% CO2. The day of viral infection was counted as “day 0”. On day 2, cells were trypsinized and resuspended in the mES medium, and then seeded at a density of 5,000 cells per well onto a 96-well plate pre-seeded with irradiated mouse embryonic fibroblast feeders. The mES medium supplemented with different concentrations of LiCl (0.6 mM, 1.2 mM, 2.5 mM, 5 mM, 10 mM, 20 mM and 40 mM) were used from day 3. On day 6, the medium was replaced with KSR medium supplemented with different concentrations of LiCl (0.6 mM, 1.2 mM, 2.5 mM, 5 mM, 10 mM, 20 mM and 40 mM). On day 8, the medium was replaced with KSR medium again.
b. Using the method described in step a, from day 8, Oct-GFP^+ colonies were observed and counted under an inverted fluorescence microscope every day, and pictures were also taken with a fluorescence microscope. FIG. 2A was representative images of wells in the 96-well plate on day 10, in which there were more GFP^+ colonies in 10 mM LiCl treated well than in untreated well. […] On day 8, GFP^+ colony could barely be observed in control wells, while approximately 10 GFP^+ colonies could be observed in 10 mM LiCl treated wells. On day 10, approximately 20 GFP^+ colonies could be observed in 10 mM LiCl treated wells, with induction efficiency 5 to 6 times of that of control wells'.

[Cl-].[Li+] [LiCl, lithium chloride]
increase of percentage of Oct-GFP+ cells versus control groups [1]: approximately 60 times | percentage of Oct-GFP+ cells [1]: 14.5% | induction efficiency increase versus wells without treatment (flow cytometry) [2]: 5 to 6 times | induction efficiency of iPS cells versus control groups (colony count) ([3]; 5 mM or 10 mM LiCl): enhanced; also recorded: significantly improved | induction efficiency increase versus control groups (colony count) ([3]; 10 mM LiCl): approximately 7 times | number of Oct-GFP+ colonies per well ([4]; 10 mM LiCl, day 8 after infection): approximately 10 | induction efficiency relative to control wells (colony count) ([4]; 10 mM LiCl, day 10): 5 to 6 times | number of Oct-GFP+ colonies per well ([4]; 10 mM LiCl, day 10 after infection): approximately 20 | most effective dose of LiCl (number of positive colonies) ([4]; tested 0.6-40 mM): 10 mM
